The series deals with Cyp1a2. Briefly: Cytochrome P450 activity (P450-Glo Assay, induction of Cyp1a2). The settings on record: mouse iPS-derived hepatocyte-like cells kept in final maturation medium until day 42; incubation with 100 μM phenobarbital. The method, then: Cytochrome P450 activity. Cytochrome […] activity was detected by using the non-lytic method of P450-Glo™ Assay (Promega V8771). Mouse iPS cells were incubated with luminogenic substrate (Luciferin-ME) for 4 hours at 37° C. 50 μl was mixed with 50 μl Luciferin Detection Reagent in triplicate. Mean luminescence was calculated from 11 consecutive time points with 2 minutes interval. Induction of Cyp1a2 was performed by incubation with 100 μM phenobarbital.

One compound from patent publication US9777258B2, “Methods for differentiating cells into hepatic stellate cells and hepatic sinusoidal endothelial cells, cells produced by the method, and methods for using the cells” (Katholieke Universiteit Leuven, priority 2010, dated 2017) can be followed below.

For the compound `CCC1(c2ccccc2)C(=O)NC(=O)NC1=O` [phenobarbital], the “increase of Cyp1a2 activity” value was 45%.
